Results reported in US9701681B2, “Fused ring heteroaryl compounds and their use as Trk inhibitors” (CMG Pharmaceutical Co., Ltd., priority 2014, dated 2017).

How the values were obtained:
[1] = molecular target: T1, TRK A, B & C kinase; assay: TRK A, B & C kinase assay (ADP-Glo / HTRF KinEASE-TK); assay type: biochemical; settings: ADP-Glo or HTRF KinEASE-TK kit, isoform not specified, read-out: IC50 (nM) Enzymatic assay
T1 construct: fused on or other part: Carna's Trk kinases are usually GST-tagged cytoplasmic domains
Procedure: ADP-Glo assay kit was purchased from Promega. poly (Glu, Tyr), Magnesium sulfate, Bovine serum albumin (BSA) and dimethylsulfoxide(DMSO) were purchased from Sigma-Aldrich. Tris-HCl buffer was purchased from BD Gentest. HTRF KinEASE-TK kit was purchased from cisbio. TRK A, B & C kinase was purchased from Carna bioscience.
Kinase assay was performed for Chemical Compounds 1-61 using two methods using luminescent ADP-Glo assay kit (Promega) and HTRF KinEASE-TK assay kit (cisbio). The luminescent ADP-Glo assay kit (Promega) measures ADP formed from a kinase reaction. ADP converted into ATP, which is then converted into light by Ultra-Glo luciferase. The HTRF KinEASE-TK assay kit (cisbio) measures tyrosine kinase activities using one substrate and a universal detection system.
ADP-Glo Assay Kit (Promega)
The protein kinase assay was performed for Chemical Compounds 1-61 at […] concentrations are 0.4 ng/ul of TrKA, 0.5 ng/ul of TrKB and 3 ng/ul of TrKC, respectively), 5 μL of 1 ug/ul stock solution of poly(glu, Tyr), 5 μL of compounds or assay buffer, 5 μL of ATP (125 μM stock solution).
The assay was started by incubating the reaction mixture in a 96-well plate at 30° C. for 1 hr. After the incubation, the assay was terminated by the addition of 25 […] Detection Reagent was added, and the 96-well plate was shaken and then incubated for additional 30 min at ambient temperature. The 96-well reaction plate was then read on an Enspire plate reader. The IC50 values were derived through a curve fitting using SigmaPlot.
HTRF KinEASE-TK Assay Kit (Cisbio)
The HTRF KinEASE-TK assay was performed for Chemical Compounds 1-61 in 384-well low volume microplate (Greiner). The HTRF KinEASE-TK assay format involves the two steps. The first step is kinase reaction step. This kinase reaction step was performed at RT (room temperature) in final volume of 10 ul according to the following assay reaction recipe: 10 ul of kinase mixture (Kinase (2 ul)+ATP (2 ul)+Substrate (2 ul)+Compound (4 ul)). Kinase final concentrations were 0.3 ng/ul of TRKA, 0.1 ng/ul of TRKB, 0.03 ng/ul of TRKC, respectively. ATP final concentrations were 14.7 uM (TRKA), 4.77 uM (TRKB), 25.6 uM (TRKC) respectively. TK-substrate final concentration was 0.3 ng/ul. The mixtures exposed to Dose response concentration (DRC) compound from 0 to 100 nM for 40 min. During the kinase reaction step, the kinase reaction was started by the addition of ATP. Kinase phosphorylates the substrate.
The second is detection step. 10 ul of detection reagents (5 ul Sa-XL 665 in EDTA+5 ul TK Antibody-Eu in EDTA) was added to kinase mixture. This step was performed at room temperature for 1 hr. The detection reagent detects phosphorylated substrates.
Finally 384-well reaction plate was then read on FlexStation 3 machine. The fluorescence was measured at 620 nm (Cryptate) and 665 nm (XL665). A ratio is calculated ([…]/620)×10^4 for each well. The IC50 value was derived through a curve fitting using GraphPad Prism. Table 1 below includes the results of the assays.

[2] = test system: TF-1 cells; assay: Cell proliferation assay (TF-1); settings: 10 ng/ml human β-NGF, 72 hours exposure, read-out: IC50 (nM) Cell-based assay (TF-1)
Procedure: (§1) Doxorubicin was purchased from Sigma Aldrich (D1515). All compounds were diluted in DMSO (Sigma Aldrich, D2650). AlamarBlue® cell viability reagent was purchased from Thermo Scientific (88952). CellTiter 96® AQueous One Solution Cell proliferation assay was purchased from Promega. KM12-luc cells were obtained from JCRB (National Institute of Health Sciences, Tokyo, Japan). They were maintained in DMEM medium (GIB-11965-118) supplemented with 10% fetal bovine serum (Gibco, 16000-044) and MEM Non-Essential Amino Acids Solution (Thermo Scientific, 11140-050). TF-1 cells were obtained from ATCC. They were maintained in RPMI medium (GIB-A10491) supplemented with 10% fetal bovine serum (Gibco, 16000-044), GM-CSF (Thermo Scientific, 11140-050), and β-NGF (R&D systems). Trypsin/EDTA was purchased from Gibco (GIB-25300-054, 0.05%). 96-well plates were purchased from Corning Inc.
(§2) The proliferation assay was performed for Chemical Compounds 1-61 s in media supplemented with 10% FBS, using AlamarBlue® cell viability reagent or CellTiter 96® AQueous One Solution Cell proliferation assay kit. Cells were cultured in humidified 37° C. incubator with 5% CO2. To evaluate the antiproliferation activity of compounds, TF-1 cells were adjusted to GM-CSF free media (RPMI, 10% FBS, and 1% penicillin-streptomycin) for 16 hr and were seeded in 96-well plates at 30,000 cells/well with medium (RPMI, 10% FBS, 1% penicillin-streptomycin and 10 ng/ml human β-NGF). KM12-luc were seeded at 10,000 cells per well into 96-well plates. After overnight incubation, serial dilutions of compounds were added to triplicate wells, and cells were exposed for 72 hours. The final concentration of DMSO was adjusted to 0.5% in media. Quantitation of cell growth was assessed using two kinds of reagent. 20 ul of AlamarBlue® reagent in an amount equal to 10% of the culture volume was added to each well and were incubated in humidified 37° C. incubator with 5% CO2 for 2 hr. Otherwise, 20 ul of CellTiter 96® reagent was added to each well and were incubated in the same conditions as previously described. Data were plotted, and GI50 values were calculated using GraphPad software. Table 1 below includes the results of the assays.

[3] = test system: KM12-luc cells; assay: Cell proliferation assay (KM12); settings: 72 hours exposure, read-out: IC50 (nM) Cell-based assay (KM12)
Procedure: as §1, §2

Row | IC50 [1] [nM] | Compound | IC50 [2] [nM] | IC50 [3] [nM]
1 | < 10 | CC(C)(C)c1nnc(-c2cnn3ccc(N4CCCC4c4cncc(F)c4)nc23)o1 (stereo not drawn) [Chemical Compound 16, 2-tert-butyl-5-(5-(2-(5-fluoropyridin-3-yl)pyrrolidin-1-yl)pyrazolo[1,5-a]pyrimidin-3-yl)-1,3,4-oxadiazole] | < 100 | < 100
2 | < 10 | CC(C)c1nnc(-c2cnn3ccc(N4CCC[C@@H]4c4cncc(F)c4)nc23)s1 [Chemical Compound 17, (R)-2-(5-(2-(5-fluoropyridin-3-yl)pyrrolidin-1-yl)pyrazolo[1,5-a]pyrimidin-3-yl)-5-isopropyl-1,3,4-thiadiazole] | < 10 | < 10
3 | < 10 | CC(C)(C)c1nnc(-c2cnn3ccc(N4C[C@@H](F)C[C@@H]4c4cc(F)ccc4F)nc23)o1 [Chemical Compound 26, 2-tert-butyl-5-(5-((2R,4S)-2-(2,5-difluorophenyl)-4-fluoropyrrolidin-1-yl)pyrazolo[1,5-a]pyrimidin-3-yl)-1,3,4-oxadiazole] | < 10 | < 10
4 | > 100 | CC(C)(C)c1nnc(-c2cnn3ccc(N4C[C@@H](F)C[C@H]4c4cc(F)ccc4F)nc23)o1 [Chemical Compound 27, 2-tert-butyl-5-(5-((2S,4S)-2-(2,5-difluorophenyl)-4-fluoropyrrolidin-1-yl)pyrazolo[1,5-a]pyrimidin-3-yl)-1,3,4-oxadiazole] | > 1000 | > 1000
5 | < 10 | COc1ncc(F)cc1C1CCCN1c1ccn2ncc(-c3nnc(C(C)(C)C)o3)c2n1 (stereo not drawn) [Chemical Compound 28, 2-tert-butyl-5-(5-(2-(5-fluoro-2-methoxypyridin-3-yl)pyrrolidin-1-yl)pyrazolo[1,5-a]pyrimidin-3-yl)-1,3,4-oxadiazole] | < 10 | < 10
6 | < 10 | Fc1ccc(F)c(C2CCCN2c2ccn3ncc(-c4cnco4)c3n2)c1 (stereo not drawn) [Chemical Compound 29, 5-(5-(2-(2,5-difluorophenyl)pyrrolidin-1-yl)pyrazolo[1,5-a]pyrimidin-3-yl)oxazole] | < 100 | < 100
7 | < 10 | Fc1ccc(F)c(C2CCCN2c2ccn3ncc(-c4cnoc4)c3n2)c1 (stereo not drawn) [Chemical Compound 30, 4-(5-(2-(2,5-difluorophenyl)pyrrolidin-1-yl)pyrazolo[1,5-a]pyrimidin-3-yl)isoxazole] | < 100 | < 100
8 | < 100 | Cc1noc(C)c1-c1cnn2ccc(N3CCCC3c3cc(F)ccc3F)nc12 (stereo not drawn) [Chemical Compound 31, 4-(5-(2-(2,5-difluorophenyl)pyrrolidin-1-yl)pyrazolo[1,5-a]pyrimidin-3-yl)-3,5-dimethylisoxazole] | < 1000 | < 1000
9 | < 10 | Cc1nnc(-c2cnn3ccc(N4CCCC4c4cc(F)ccc4F)nc23)[nH]1 (stereo not drawn) [Chemical Compound 32, 5-(2-(2,5-difluorophenyl)pyrrolidin-1-yl)-3-(5-methyl-1H-1,2,4-triazol-3-yl)pyrazolo[1,5-a]pyrimidine] | < 100 | < 100
10 | < 10 | CCNC(=O)/C=C/c1cnn2ccc(N3CCCC3c3cncc(F)c3)nc12 (stereo not drawn) [Chemical Compound 38, (E)-N-ethyl-3-(5-(2-(5-fluoropyridin-3-yl)pyrrolidin-1-yl)pyrazolo[1,5-a]pyrimidin-3-yl)acrylamide] | < 1000 | < 1000
11 | < 10 | O=C(/C=C/c1cnn2ccc(N3CCCC3c3cncc(F)c3)nc12)NC1CC1 (stereo not drawn) [Chemical Compound 39, (E)-N-cyclopropyl-3-(5-(2-(5-fluoropyridin-3-yl)pyrrolidin-1-yl)pyrazolo[1,5-a]pyrimidin-3-yl)acrylamide] | < 1000 | < 1000
12 | < 10 | CN(C)C(=O)/C=C/c1cnn2ccc(N3CCCC3c3cncc(F)c3)nc12 (stereo not drawn) [Chemical Compound 40, (E)-3-(5-(2-(5-fluoropyridin-3-yl)pyrrolidin-1-yl)pyrazolo[1,5-a]pyrimidin-3-yl)-N,N-dimethylacryl-amide] | < 100 | < 1000
